Seven compounds from ChEMBL document CHEMBL5724914, “Linking interpersonal differences in gut microbiota composition and drug biotransformation activity” (2024) can be followed below.

For series [1] the following is noted: human gut metagenome, 24 h, 2 µM.
Series [2] can be described thus: The drug is tested on Z-021 corresponding to metagenome with ENA study accession number: PRJEB37062 and ENA sample accession number: ERS12561820 for biotransformation under anaerobic condition. The drug concentrations were measured over 9 timepoints collected between 0 and 24 hours of incubation by liquid-chromatography-coupled mass spectrometry (LC–MS). To be noted: 2 µM.

Series [3] can be described thus: The drug is tested on Z-019 corresponding to rat gut metagenome with ENA study accession number: PRJEB37062 and ENA sample accession number: ERS12561818 for biotransformation under anaerobic condition. The drug concentrations were measured over 9 timepoints collected between 0 and 24 hours of incubation by liquid-chromatography-coupled mass spectrometry (LC–MS). The conditions noted are these: 2 µM.

Series [4] can be described thus: The drug is tested on Z-016 corresponding to mouse gut metagenome with ENA study accession number: PRJEB37062 and ENA sample accession number: ERS12561815 for biotransformation under anaerobic condition. The drug concentrations were measured over 9 timepoints collected between 0 and 24 hours of incubation by liquid-chromatography-coupled mass spectrometry (LC–MS). To be noted: 2 µM.

Series [5] can be described thus: The drug is tested on WLS-220 corresponding to human gut metagenome with ENA study accession number: PRJEB37062 and ENA sample accession number: ERS12561769 for biotransformation under anaerobic condition. The drug concentrations were measured over 9 timepoints collected between 0 and 24 hours of incubation by liquid-chromatography-coupled mass spectrometry (LC–MS). The conditions noted are these: 2 µM.

A short description of series [6]: The drug is tested on WLS-082 corresponding to human gut metagenome with ENA study accession number: PRJEB37062 and ENA sample accession number: ERS12561751 for biotransformation under anaerobic condition. The drug concentrations were measured over 9 timepoints collected between 0 and 24 hours of incubation by liquid-chromatography-coupled mass spectrometry (LC–MS). To be noted: 2 µM.

For series [7] the following is noted: human gut metagenome, 24 h, 2 µM. This is another data set of the same source.
For series [8] the following is noted: human gut metagenome, 24 h, 2 µM. The source holds these as a separate data set.
For series [9] the following is noted: human gut metagenome, 24 h, 2 µM. This is another data set of the same source.
The conditions of series [10]: human gut metagenome, 24 h, 2 µM. This is another data set of the same source.
Series [11] in a line: The drug is tested on WLS-039 corresponding to human gut metagenome with ENA study accession number: PRJEB37062 and ENA sample accession number: ERS12561746 for biotransformation under anaerobic condition. The drug concentrations were measured over 9 timepoints collected between 0 and 24 hours of incubation by liquid-chromatography-coupled mass spectrometry (LC–MS). To be noted: 2 µM.

A short description of series [12]: The drug is tested on Z-018 corresponding to pig gut metagenome with ENA study accession number: PRJEB37062 and ENA sample accession number: ERS12561817 for biotransformation under anaerobic condition. The drug concentrations were measured over 9 timepoints collected between 0 and 24 hours of incubation by liquid-chromatography-coupled mass spectrometry (LC–MS). The conditions noted are these: 2 µM.

The conditions of series [13]: human gut metagenome, 24 h, 2 µM. This is another data set of the same source.
The nature of series [14]: The drug is tested on Z-020 corresponding to rabbit gut metagenome with ENA study accession number: PRJEB37062 and ENA sample accession number: ERS12561819 for biotransformation under anaerobic condition. The drug concentrations were measured over 9 timepoints collected between 0 and 24 hours of incubation by liquid-chromatography-coupled mass spectrometry (LC–MS). To be noted: 2 µM.

For series [15] the following is noted: human gut metagenome, 24 h, 2 µM. The source holds these as a separate data set.
Series [16] is described as follows: The drug is tested on Z-017 corresponding to mouse gut metagenome with ENA study accession number: PRJEB37062 and ENA sample accession number: ERS12561816 for biotransformation under anaerobic condition. The drug concentrations were measured over 9 timepoints collected between 0 and 24 hours of incubation by liquid-chromatography-coupled mass spectrometry (LC–MS). The conditions noted are these: 2 µM.

A short description of series [17]: The drug is tested on Z-001 corresponding to mouse gut metagenome with ENA study accession number: PRJEB37062 and ENA sample accession number: ERS12561801 for biotransformation under anaerobic condition. The drug concentrations were measured over 9 timepoints collected between 0 and 24 hours of incubation by liquid-chromatography-coupled mass spectrometry (LC–MS). The conditions noted are these: 2 µM.

For series [18] the following is noted: human gut metagenome, 24 h, 2 µM. This is another data set of the same source.
The nature of series [19]: The drug is tested on WLS-350 corresponding to human gut metagenome with ENA study accession number: PRJEB37062 and ENA sample accession number: ERS12561789 for biotransformation under anaerobic condition. The drug concentrations were measured over 9 timepoints collected between 0 and 24 hours of incubation by liquid-chromatography-coupled mass spectrometry (LC–MS). The conditions noted are these: 2 µM.

The conditions of series [20]: human gut metagenome, 24 h, 2 µM. This is another data set of the same source.
Note: call rule not given here.

Turning to `C[C@@H]1CC[C@H]2[C@@H](C)C(=O)O[C@@H]3O[C@@]4(C)CC[C@@H]1[C@]32OO4` [ARTEMISININ], the “Bacterial Biotransformation” value in [1], in series [2], in series [3], in series [4], in series [5] and in [6] was “Compound metabolized” each time. Besides, the “Bacterial Biotransformation” value in [7], in [8], in [9], in series [10], in series [11] and in series [12] was “Compound metabolized” throughout. For the same compound, the “Bacterial Biotransformation” value in series [13], in series [14] and in [15] was “Compound metabolized” throughout.

`CCN(CC)C(=O)/C(C#N)=C/c1cc(O)c(O)c([N+](=O)[O-])c1` [ENTACAPONE]: the “Bacterial Biotransformation” value in series [2] is on record as “Compound metabolized”; in [3] it was “Compound NOT metabolized”; in series [4], “Compound metabolized”; in series [16] it was “Compound metabolized”; in series [5], “Compound NOT metabolized”; in series [7], “Compound metabolized”. The “Bacterial Biotransformation” value in series [12], in series [14] and in series [17] was “Compound metabolized” throughout.

As for `COc1c2occc2cc2ccc(=O)oc12` [METHOXSALEN], the “Bacterial Biotransformation” value in series [1] was “Compound metabolized”; in [2] it was “Compound metabolized”; in series [18], “Compound metabolized”; in series [3], “Compound NOT metabolized”; in series [4], “Compound metabolized”; in series [16] it was “Compound metabolized”. Also, the “Bacterial Biotransformation” value in [5], in series [7], in [8], in series [9], in [10] and in series [19] was “Compound metabolized” in each case. The “Bacterial Biotransformation” value is “Compound metabolized” in series [11]; “Compound metabolized” in series [12]; “Compound metabolized” in series [13]; “Compound metabolized” in series [14]; “Compound NOT metabolized” in series [17]; “Compound metabolized” in series [15].

`Cc1nc2n(c(=O)c1CCN1CCC(c3noc4cc(F)ccc34)CC1)CCCC2` [RISPERIDONE]: the “Bacterial Biotransformation” value was “Compound metabolized” in series [1]; “Compound metabolized” in [2]; “Compound metabolized” in [18]; “Compound NOT metabolized” in [3]; “Compound metabolized” in series [4]; “Compound metabolized” in series [16]. Moreover, the “Bacterial Biotransformation” value in series [5] is “Compound metabolized”; in series [6], “Compound metabolized”; in [8] it was “Compound metabolized”; in series [9], “Compound NOT metabolized”; in [10], “Compound metabolized”; in series [11] it was “Compound metabolized”. Moreover, the “Bacterial Biotransformation” value in series [20], in series [12], in series [13], in series [14], in series [17] and in [15] was “Compound metabolized” throughout.

With `CN(C)CCc1c[nH]c2ccc(Cn3cncn3)cc12.O=C(O)c1ccccc1` [RIZATRIPTAN BENZOATE], the “Bacterial Biotransformation” value in [2], in series [18], in [3], in series [4], in series [16] and in series [5] was “Compound NOT metabolized” each time. For the same compound, the “Bacterial Biotransformation” value in series [7], in [8], in [9], in [10], in series [19] and in [11] was “Compound NOT metabolized” each time. The “Bacterial Biotransformation” value in series [20], in series [12], in series [13], in series [14] and in series [17] was “Compound NOT metabolized” throughout.

As to `COc1ccc2[nH]c([S+]([O-])Cc3ncc(C)c(OC)c3C)nc2n1` (stereo not given) [TENATOPRAZOLE], the “Bacterial Biotransformation” value in series [1] is listed as “Compound NOT metabolized”; in series [2], “Compound NOT metabolized”; in series [18], “Compound NOT metabolized”; in series [3], “Compound metabolized”; in series [4] it was “Compound metabolized”; in series [16], “Compound metabolized”. Besides, the “Bacterial Biotransformation” value is “Compound metabolized” in series [5]; “Compound metabolized” in series [6]; “Compound NOT metabolized” in [7]; “Compound metabolized” in [8]; “Compound NOT metabolized” in series [9]; “Compound NOT metabolized” in series [10]. Besides, the “Bacterial Biotransformation” value was “Compound NOT metabolized” in series [19]; “Compound metabolized” in [11]; “Compound metabolized” in series [12]; “Compound metabolized” in series [13]; “Compound NOT metabolized” in [14]; “Compound metabolized” in series [17]. In addition, the “Bacterial Biotransformation” value in [15] is recorded as “Compound metabolized”.

On to `Cc1cn([C@H]2C[C@H](N=[N+]=[N-])[C@@H](CO)O2)c(=O)[nH]c1=O` [ZIDOVUDINE], for which the “Bacterial Biotransformation” value in [1] is listed as “Compound NOT metabolized”; in series [2], “Compound NOT metabolized”; in series [18], “Compound NOT metabolized”; in series [3], “Compound metabolized”; in [4], “Compound NOT metabolized”; in [16] it was “Compound metabolized”. In addition, the “Bacterial Biotransformation” value in [5] is recorded as “Compound NOT metabolized”; in series [6] it was “Compound NOT metabolized”; in series [7], “Compound metabolized”; in series [8] it was “Compound NOT metabolized”; in series [9] it was “Compound NOT metabolized”; in series [10], “Compound NOT metabolized”. Besides, the “Bacterial Biotransformation” value in [19] is “Compound NOT metabolized”; in series [20] it was “Compound NOT metabolized”; in [12] it was “Compound NOT metabolized”; in [13] it was “Compound NOT metabolized”; in series [14], “Compound metabolized”; in series [17] it was “Compound metabolized”. The “Bacterial Biotransformation” value in series [15] is reported as “Compound NOT metabolized”.
